# Source: patent EP0680973A1, “Peptides, process to prepare them and their use” (priority 1994, dated 1995)
# Ends that are not written are not given here.
# System: HIV-1 Protease
# Assay type: biochemical
# Conditions: bei 50 µM, nur 1 Bestimmung; 5% DMSO
substance,measurement,value
PQITLSDRLGGGGDRVSFNF-NH2 [HPQITLSDRLGGGGDRVSFNF-NH₂],Inhibition der HIV-1 Protease,36%⁺
